The term IC50 denotes the concentration that inhibits the measured activity by half.

The text below walks through data of ChEMBL document CHEMBL1909046, “DrugMatrix in vitro pharmacology data”.

In experiment [1] the target is T1, Alpha-1D adrenergic receptor (Homo sapiens, UniProt P25100). Also: in other assays of this panel Not Active means under 50% inhibition at 10 µM.
T1 sequence (P25100 whole entry): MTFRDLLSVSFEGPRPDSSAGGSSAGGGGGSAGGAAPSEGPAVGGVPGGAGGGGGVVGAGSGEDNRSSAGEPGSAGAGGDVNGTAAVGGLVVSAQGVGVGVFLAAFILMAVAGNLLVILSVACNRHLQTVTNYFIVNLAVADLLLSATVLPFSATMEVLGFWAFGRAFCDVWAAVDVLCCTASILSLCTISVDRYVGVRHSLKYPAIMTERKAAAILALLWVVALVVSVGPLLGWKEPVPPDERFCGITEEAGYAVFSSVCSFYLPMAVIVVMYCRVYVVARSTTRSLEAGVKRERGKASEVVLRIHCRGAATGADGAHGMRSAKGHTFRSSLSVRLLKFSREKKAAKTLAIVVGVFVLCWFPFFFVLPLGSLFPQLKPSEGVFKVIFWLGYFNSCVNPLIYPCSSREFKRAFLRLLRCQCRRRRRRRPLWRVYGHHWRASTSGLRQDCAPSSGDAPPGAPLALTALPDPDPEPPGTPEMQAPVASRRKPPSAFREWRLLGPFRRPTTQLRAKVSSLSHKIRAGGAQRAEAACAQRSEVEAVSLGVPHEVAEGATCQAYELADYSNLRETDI
Type of experiment: cell membranes, HEK293, Membrane. The following applies: hek293.

Experiment [2] deals with T2, B2 bradykinin receptor (Homo sapiens, UniProt P30411).
T2 sequence (P30411 whole entry): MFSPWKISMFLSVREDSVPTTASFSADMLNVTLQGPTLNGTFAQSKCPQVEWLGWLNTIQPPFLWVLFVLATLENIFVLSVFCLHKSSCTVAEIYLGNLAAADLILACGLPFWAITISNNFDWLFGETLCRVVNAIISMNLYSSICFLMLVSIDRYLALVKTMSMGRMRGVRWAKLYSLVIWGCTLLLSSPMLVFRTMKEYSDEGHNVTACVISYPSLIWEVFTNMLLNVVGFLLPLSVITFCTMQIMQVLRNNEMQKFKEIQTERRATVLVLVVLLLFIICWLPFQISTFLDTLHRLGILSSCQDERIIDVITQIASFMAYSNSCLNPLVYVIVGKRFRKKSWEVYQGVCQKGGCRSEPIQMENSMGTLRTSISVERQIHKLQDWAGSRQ
Type of experiment: cell membranes, Membrane. As to conditions: chem-1.

The target of experiment [3] is T3, Calcitonin receptor (Homo sapiens, UniProt P30988). Also: in other assays of this panel Not Active means under 50% inhibition at 10 µM.
T3 sequence (P30988 whole entry): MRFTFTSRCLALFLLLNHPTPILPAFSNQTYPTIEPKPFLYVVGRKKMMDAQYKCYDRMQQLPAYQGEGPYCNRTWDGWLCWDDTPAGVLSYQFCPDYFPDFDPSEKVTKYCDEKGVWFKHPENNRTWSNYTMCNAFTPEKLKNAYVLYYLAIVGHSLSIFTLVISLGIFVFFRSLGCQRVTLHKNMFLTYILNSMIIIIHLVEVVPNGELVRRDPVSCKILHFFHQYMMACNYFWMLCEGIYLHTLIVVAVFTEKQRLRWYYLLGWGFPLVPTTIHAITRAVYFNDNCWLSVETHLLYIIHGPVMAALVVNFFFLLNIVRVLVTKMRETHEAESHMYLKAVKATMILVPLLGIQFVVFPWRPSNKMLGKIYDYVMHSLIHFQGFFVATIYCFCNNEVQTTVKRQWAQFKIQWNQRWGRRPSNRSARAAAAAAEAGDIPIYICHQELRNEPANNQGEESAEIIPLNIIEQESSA
Type of experiment: cell membranes, Membrane. The following applies: t47d.

In experiment [4] the target is 5-hydroxytryptamine receptor 4 (Cavia porcellus, UniProt O70528). Type of experiment: cell membranes, Dunkin-Hartley, Striatum, Membrane. Also: in other assays of this panel Not Active means under 50% inhibition at 10 µM.
Sequence of 5-hydroxytryptamine receptor 4 (O70528 whole entry): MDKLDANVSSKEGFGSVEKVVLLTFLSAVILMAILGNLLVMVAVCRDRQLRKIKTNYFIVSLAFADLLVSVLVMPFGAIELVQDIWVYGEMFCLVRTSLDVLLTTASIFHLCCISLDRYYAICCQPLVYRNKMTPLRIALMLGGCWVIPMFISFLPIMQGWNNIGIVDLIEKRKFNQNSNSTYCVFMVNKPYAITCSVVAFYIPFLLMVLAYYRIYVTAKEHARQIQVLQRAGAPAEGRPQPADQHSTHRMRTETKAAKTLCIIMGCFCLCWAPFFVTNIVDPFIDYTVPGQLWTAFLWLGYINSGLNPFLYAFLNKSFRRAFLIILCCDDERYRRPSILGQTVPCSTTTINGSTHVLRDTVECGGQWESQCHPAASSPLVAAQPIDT
The target of experiment [5] is T4, Thromboxane-A synthase (Homo sapiens, UniProt P24557).
T4 sequence (P24557 whole entry): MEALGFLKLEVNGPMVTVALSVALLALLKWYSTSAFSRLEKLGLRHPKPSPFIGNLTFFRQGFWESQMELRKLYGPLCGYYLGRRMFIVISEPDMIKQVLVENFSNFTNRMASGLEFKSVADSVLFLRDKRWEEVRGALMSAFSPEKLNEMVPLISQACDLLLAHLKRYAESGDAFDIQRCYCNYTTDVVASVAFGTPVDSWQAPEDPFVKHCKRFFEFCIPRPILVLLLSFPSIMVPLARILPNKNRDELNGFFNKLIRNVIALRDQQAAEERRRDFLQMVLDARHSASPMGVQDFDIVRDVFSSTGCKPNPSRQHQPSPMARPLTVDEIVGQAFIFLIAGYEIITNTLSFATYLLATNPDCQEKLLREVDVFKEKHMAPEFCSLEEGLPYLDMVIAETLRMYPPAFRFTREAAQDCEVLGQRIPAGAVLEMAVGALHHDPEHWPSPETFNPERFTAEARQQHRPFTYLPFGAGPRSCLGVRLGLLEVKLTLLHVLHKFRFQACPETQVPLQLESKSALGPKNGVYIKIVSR
In words: biochemical. Type of experiment: tissue-based, Platelet.

Experiment [6] addresses Carbonic anhydrase 2 (Homo sapiens, UniProt P00918). In words: DRUGMATRIX: Carbonic Anhydrase II enzyme inhibition (substrate: 4-Nitrophenyl acetate (4-NPA)). Type of experiment: tissue-based, Erythrocyte. The following applies: Not Active = under 50% inhibition at 10 µM.
In experiment [7] the target is T5, Muscarinic acetylcholine receptor M4 (Homo sapiens, UniProt P08173). Also: in other assays of this panel Not Active means under 50% inhibition at 10 µM.
T5 sequence (P08173 whole entry): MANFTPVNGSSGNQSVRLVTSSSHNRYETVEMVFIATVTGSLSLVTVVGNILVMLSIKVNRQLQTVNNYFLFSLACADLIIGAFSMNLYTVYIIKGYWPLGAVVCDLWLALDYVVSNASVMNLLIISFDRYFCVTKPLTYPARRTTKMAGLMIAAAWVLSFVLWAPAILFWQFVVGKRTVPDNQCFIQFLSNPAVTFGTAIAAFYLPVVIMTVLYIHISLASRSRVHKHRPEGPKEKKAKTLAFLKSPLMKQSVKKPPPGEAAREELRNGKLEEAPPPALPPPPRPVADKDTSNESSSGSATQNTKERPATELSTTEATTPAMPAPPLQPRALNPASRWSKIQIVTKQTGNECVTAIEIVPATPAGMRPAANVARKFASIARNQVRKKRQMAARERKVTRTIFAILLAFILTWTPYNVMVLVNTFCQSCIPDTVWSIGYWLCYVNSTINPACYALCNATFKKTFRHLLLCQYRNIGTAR
Type of experiment: cell membranes, CHO-K1, Membrane. The following applies: cho-k1.

Experiment [8] has as its target T6, Cathepsin G (Homo sapiens, UniProt P08311).
T6 sequence (P08311 whole entry): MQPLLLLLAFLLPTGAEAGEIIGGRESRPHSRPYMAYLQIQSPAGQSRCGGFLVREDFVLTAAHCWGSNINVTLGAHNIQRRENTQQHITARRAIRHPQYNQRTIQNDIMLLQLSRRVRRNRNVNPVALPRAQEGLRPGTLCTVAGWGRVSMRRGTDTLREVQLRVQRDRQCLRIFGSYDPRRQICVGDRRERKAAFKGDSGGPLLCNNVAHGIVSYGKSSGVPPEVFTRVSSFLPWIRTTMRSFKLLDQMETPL
Type of experiment: tissue-based. The following applies: neutrophil.

Molecules are shown by their SMILES.
For Ki in this document: in other assays of this panel Not Active means under 50% inhibition at 10 µM.

As to `Cc1cccc(Nc2ccncc2S(=O)(=O)NC(=O)NC(C)C)c1` [TORSEMIDE], the IC50 result in experiment [1], in experiment [3], in experiment [4], in experiment [5] (platelet), in experiment [6] (erythrocyte) and in experiment [7] was “Not Active” each time. Besides, the IC50 entry in experiment [8] is “Not Active”. The Ki result in experiment [2] is recorded as “Not Active”.

In the case of `CC(C)C[C@H](NC(=O)[C@@H](O)[C@H](N)Cc1ccccc1)C(=O)O` [UBENIMEX], the IC50 result in experiment [1], in experiment [2], in experiment [3], in experiment [4], in experiment [5] (platelet) and in experiment [6] (erythrocyte) was “Not Active” each time. The IC50 result in experiment [7] and in experiment [8] was “Not Active” throughout.

With `CC[C@]1(O)C[C@@H]2CN(CCc3c([nH]c4ccccc34)[C@@](C(=O)OC)(c3cc4c(cc3OC)N(C)[C@H]3[C@@](O)(C(=O)OC)[C@H](OC(C)=O)[C@]5(CC)C=CCN6CC[C@]43[C@@H]65)C2)C1` [VINBLASTINE], the IC50 result in experiment [1] is “Not Active”; in experiment [2], “Not Active”; in experiment [3], “Not Active”; in experiment [4] it was “Not Active”; in experiment [5] (read-out: IC50), 1870 nM; in experiment [6] (erythrocyte), “Not Active”. The IC50 result in experiment [7] and in experiment [8] was “Not Active” throughout.

Turning to `CC(=O)CC(c1ccccc1)c1c(O)c2ccccc2oc1=O` (stereo not drawn) [WARFARIN], the IC50 entry in experiment [1], in experiment [2], in experiment [3], in experiment [4], in experiment [5] (platelet) and in experiment [6] (erythrocyte) was “Not Active” in each case. The IC50 result in experiment [7] and in experiment [8] was “Not Active” each time.

For `C[C@@H](N)[C@H]1CC[C@H](C(=O)Nc2ccncc2)CC1` [Y-27632], the IC50 entry in experiment [1], in experiment [2], in experiment [3], in experiment [4], in experiment [5] (platelet) and in experiment [6] (erythrocyte) was “Not Active” throughout. Also, the IC50 entry in experiment [7] and in experiment [8] was “Not Active” each time.

For `[Cl-].[Cl-].[Zn+2]` [ZINC CHLORIDE], the IC50 result is “Not Active” in experiment [1]; “Not Active” in experiment [2]; “Not Active” in experiment [3]; “Not Active” in experiment [4]; “Not Active” in experiment [5] (platelet); 1160 nM in experiment [6] (read-out: IC50). Also, the IC50 entry in experiment [7] and in experiment [8] was “Not Active” throughout.
